Results on four molecules are retold here after patent publication US5132409A, “Macrocyclic chelating agents and chelates thereof” (Bracco Industria Chimica S.p.A., priority 1987, dated 1992).

For one series, the system named is mouse. As to the kind of experiment: Determination of LD50 in the mouse by intravenous administration. The format is in vivo. Conditions: male and female mice, strain Crl:CD1(ICR)BR. From the text: Determination of LD50 in the Mouse by Intravenous Administration of the Compounds of the Present Invention
In table II are reported, as non-limiting examples, the LD50 values for compounds A and B of the present invention, in comparison with GdCl3 and with Gd/DTPA neutralized with N-methylglucamine.
*male and female mice were used, Strain: Crl:CD1(ICR)BR

For series [1] the following is noted: background statement in words; cited from earlier work.
Series [2] in a line: Determination of relaxivity (MINISPEC PC 120 BRUKER, 20 MHz proton, 39° C.). The class given is physicochemical. Conditions: pH 7.3, aqueous solvent, 0-5 mM; for Transverse relaxivity (R2): Carr, Purcell, Meiboom and Gill sequence; for Longitudinal relaxivity (R1): Inversion Recovery. The protocol: Determination of the Relaxivity of the Compounds of the Present Invention
A) Apparatus: […] PC 120 (BRUKER)
B) Observation frequency:
39° C., with pre-thermostatization
of the NMR test tube for 10 min
at the operative temperature
in the range from 0 to 5 mM with the
following specific measuring points:
F) pH: 7.3, to be checked again
potentiometrically before the
relaxation measurement.
Longitudinal relaxivity (R1) measurements were calculated using the "Inversion Recovery" sequence with an 8 point minimum and a 3 parameter fit, according to the program provided for the […] 120 BRUKER instrument, by which measurements were taken.
Transverse relaxivity (R2) measurements were calculated using the sequence of Carr, Purcell, Meiboom and Gill, according to the program provided for the […] 120 BRUKER instrument, by means of which measurements were taken, adjusting the apparatus in such a way as to observe the decay of the signal to about 1/3 of the starting value, with a score number higher or equal to 10 and a 2 parameter fit.

Regarding `CNC[C@H](O)[C@@H](O)[C@H](O)[C@H](O)CO.CNC[C@H](O)[C@@H](O)[C@H](O)[C@H](O)CO.O=C([O-])CN(CCN(CC(=O)[O-])CC(=O)O)CCN(CC(=O)[O-])CC(=O)O.[Gd+3]` [Gd/DTPA, reference compound], the “LD50 in the mouse” value in the series with mouse was 4.8 (4.47-5.16) mmol/kg. In series [1], the “removal from the blood stream and from the lesions of the tissues under examination” value was “too quickly removed from the blood stream and from the lesions of the tissues under examination”. Further, in series [2], the “Transverse relaxivity (R2)” value turned out to be 5.15 ± 0.02 mM/s and the “Longitudinal relaxivity (R1)” value worked out at 4.08 ± 0.01 mM/s.

In the case of `[Cl][Gd]([Cl])[Cl]` [GdCl3, reference compound], the “LD50 in the mouse” value in the series on mouse is on record as 0.28 (0.24-0.32) mmol/kg.

Take “D(-)-N-methylglucamine salt of Gd^(3+) /2-[1,4,7,10-tetraaza-4,7,10-tri(carboxymethyl)-cyclododecane-1-yl]-3-hydroxypropionic acid complex”: in the series on mouse, the “LD50 in the mouse” value was 13.1 (12.2-14.1) mmol/kg. In addition, in series [2], the “Transverse relaxivity (R2)” value is 5.06 ± 0.01 mM/s and the “Longitudinal relaxivity (R1)” value came to 3.72 ± 0.01 mM/s.

For the molecule “D(-)-N-methylglucamine salt of the Gd^(3+) /2-[1,4,7,10-tetraaza-4,7,10-tri(carboxymethyl)-cyclododecane-1-yl]-3-benzyloxypropionic acid complex”, the “LD50 in the mouse” value in the series on mouse was 8.8 (7.79-9.94) mmol/kg. In series [2], the “Transverse relaxivity (R2)” value came out at 5.67 ± 0.02 mM/s and the “Longitudinal relaxivity (R1)” value was determined as 4.15 ± 0.01 mM/s.
